# Measurements: US20060110370A1, “Treatments for reduction of cytotoxicity and viral contamination of implantable medical devices” (priority 2004, published 2006)
# Columns and labels:
# Porcine Parvovirus (PPV) = test: Viral inactivation of spiked porcine valve and pericardium, PPV; format: cell-based; conditions: 0.2% glutaraldehyde at 47 days; average for porcine valve and pericardium material
# Reovirus Type 3 (REO-3) = test: Viral inactivation of spiked porcine valve and pericardium, REO-3; format: cell-based; conditions: 0.2% glutaraldehyde at 47 days; average for porcine valve and pericardium material
# [1] = test system: five viruses (A-MuLV, Inf A, PPV, PrV, REO-3); test: Viral inactivation, panel of five viruses (remaining virus); format: cell-based; conditions: after 47 days of exposure
# [2] = test system: Amphotropic Murine Leukemia Virus (A-MuLV); test: Viral inactivation of spiked porcine valve and pericardium, A-MuLV; format: cell-based; conditions: 0.2% glutaraldehyde at 47 days; average for porcine valve and pericardium material
# Pseudorabies Virus (PrV) = format: cell-based; conditions: 0.2% glutaraldehyde at 47 days; average for porcine valve and pericardium material
# [3] = test system: Influenza A Virus (Inf A); test: Viral inactivation of spiked porcine valve and pericardium, Inf A; format: cell-based; conditions: 0.2% glutaraldehyde at 47 days; average for porcine valve and pericardium material
# [4] = Calcification after subcutaneous implantation in rats (Example 2), porcine wall; format: in vivo, Sprague-Dawley rats; conditions: retrieved after 60 days of implantation, about 16 hours treatment
# Experimental: (§1) In a class 100 laminar flow bench, pieces of glutaraldehyde-fixed bovine pericardium tissue (Mitroflow Inc.; Richmond, British Columbia, Canada) porcine cusp tissue (Labcor; Belo Horizonte, Brazil) and porcine wall tissue (Labcor Inc.) were transferred into sterile tubes containing 1,2-octanediol solutions (5% 1,2-octanediol (Aldrich Chemical), 40% ethanol and 55% 10 mM HEPES buffer). The tubes were transferred to a 37° C. incubator and maintained at 37° C. with gentle agitation for about 16 hours. After the treatment, the samples were transferred to solutions comprising 22% ethanol in 10 mM HEPES and stored for 14 days at 4° C. The final tissue to volume ratio for all treatments was approximately 27 ml/g. For N-methyl pyrolidinone (NMP) treatments, pieces of glutaraldehyde-fixed bovine pericardium tissue (Mitroflow Inc.), porcine cusp tissue (Labcor Inc.) and porcine wall tissue (Labcor Inc.) were transferred into sterile tubes containing NMP. The tubes were incubated at room temperature for about 16 hours with occasional manual agitation. After the treatment, the tissue samples were transferred to 22% HEPES-buffered ethanol solutions and stored for 14 days at 4° C. […] Seven rats per treatment group were analyzed. […] After retrieval, the samples were analyzed for their calcium and phosphorus contents using a standard ICP methodology.
# [5] = Calcification after subcutaneous implantation in rats (Examples 2 and 3), bovine pericardium; format: in vivo, Sprague-Dawley rats; conditions: retrieved after 60 days of implantation, about 16 hours treatment
# Experimental: as §1, with “agitation.” for “agitation. After the treatment, the tissue samples were transferred to 22% HEPES-buffered ethanol solutions and stored for 14 days at 4° C.”, “methodology. […] Seven rats per treatment group were analyzed. […] After retrieval, the samples were analyzed for their calcium and phosphorus contents by ICP.” for “methodology.”
# [6] = Calcification after subcutaneous implantation in rats (Example 2), porcine cusp; format: in vivo, Sprague-Dawley rats; conditions: retrieved after 60 days of implantation, about 16 hours treatment
# Experimental: as §1
SMILES,"Viral log reduction, PPV (Porcine Parvovirus (PPV))","Viral log reduction, REO-3 (Reovirus Type 3 (REO-3))",viruses present on porcine valves or pericardium materials [1],"Viral log reduction, A-MuLV [2]","Viral log reduction, PrV (Pseudorabies Virus (PrV))","Viral log reduction, Inf A [3]",Calcuim (μg/mg tissue) [4],Phosphorus (μg/mg tissue) [4],Calcuim (μg/mg tissue) [5],Phosphorus (μg/mg tissue) [5],Calcuim (μg/mg tissue) [6],Phosphorus (μg/mg tissue) [6]
"O=CCCCC=O [Glutaraldehyde, glutaraldehyde]",5.03 log,5.00 log,No viruses were present,4.15 log,5.51 log,3.5 log,,,,,,
"CN1CCCC1=O [NMP, N-methyl pyrolidinone]",,,,,,,111.9 μg/mg tissue,55.2 μg/mg tissue,8.0 μg/mg tissue,3.4 μg/mg tissue,14.7 μg/mg tissue,7.9 μg/mg tissue
